Among the data in ChEMBL document CHEMBL4229400, “Covalent inhibitors of nicotinamide N-methyltransferase (NNMT) provide evidence for target engagement challenges in situ” (Bioorg Med Chem Lett, 2018) are IC50 and Activity values, retold here.

The IC50 is the concentration that gives 50% inhibition.

Structures are written as SMILES. Calls of active or inactive are those of the source. The calls are words filed in the database; no cut-off is given here.

Experiment [1] has as its target T1, Nicotinamide N-methyltransferase (Homo sapiens, UniProt P40261).
T1 sequence (P40261 whole entry): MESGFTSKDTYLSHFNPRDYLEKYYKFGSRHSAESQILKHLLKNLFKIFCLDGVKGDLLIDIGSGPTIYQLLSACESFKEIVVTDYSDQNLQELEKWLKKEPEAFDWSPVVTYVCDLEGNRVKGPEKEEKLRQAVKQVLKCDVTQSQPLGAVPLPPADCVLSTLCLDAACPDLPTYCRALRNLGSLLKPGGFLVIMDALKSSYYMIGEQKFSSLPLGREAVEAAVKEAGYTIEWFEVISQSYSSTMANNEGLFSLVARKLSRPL
In words: Inhibition of SAH-rhodamine binding to NNMT in human 786-O cell soluble proteomic lysate preincubated for 1 hr followed by SAH-rhodamine addition measured after 5 mins by Gel-based ABPP analysis.

Experiment [2] concerns the target T1, Nicotinamide N-methyltransferase. In words: Inhibition of NNMT in human 786-O cell lysate using d4-nicotinamide as substrate preincubated for 1 hr followed by substrate and SAM addition measured after 15 to 30 mins by LC-MS analysis.
For experiment [3] the target is unchanged. The experiment in a line: Inhibition of NNMT in human 786-O cell lysate using d4-nicotinamide as substrate pretreated for 1 hr at 3 mins post 160 uM SAM addition followed by substrate addition measured after 15 to 30 mins by LC-MS analysis.
In experiment [4] the target is T2, Heme oxygenase 2 (Homo sapiens) (UniProt P30519).
T2 sequence (whole entry): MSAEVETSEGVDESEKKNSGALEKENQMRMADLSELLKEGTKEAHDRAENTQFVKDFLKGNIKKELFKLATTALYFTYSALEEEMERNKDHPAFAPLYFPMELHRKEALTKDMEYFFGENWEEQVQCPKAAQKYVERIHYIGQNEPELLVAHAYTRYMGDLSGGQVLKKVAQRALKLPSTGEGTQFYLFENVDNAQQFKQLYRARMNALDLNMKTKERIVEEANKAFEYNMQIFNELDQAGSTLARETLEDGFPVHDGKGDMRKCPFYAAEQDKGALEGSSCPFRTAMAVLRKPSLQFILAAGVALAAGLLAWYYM
In words: Binding affinity to HMOX2 cysteine residue in human 786-O cell soluble proteomic lysate at 5 uM incubated for 1 hr followed by cell lysis by IA-alkyne probe based isoTOP-ABPP analysis.

Experiment [5] deals with T3, Aldehyde dehydrogenase 1A1 (Homo sapiens) (UniProt P00352).
T3 sequence (whole entry): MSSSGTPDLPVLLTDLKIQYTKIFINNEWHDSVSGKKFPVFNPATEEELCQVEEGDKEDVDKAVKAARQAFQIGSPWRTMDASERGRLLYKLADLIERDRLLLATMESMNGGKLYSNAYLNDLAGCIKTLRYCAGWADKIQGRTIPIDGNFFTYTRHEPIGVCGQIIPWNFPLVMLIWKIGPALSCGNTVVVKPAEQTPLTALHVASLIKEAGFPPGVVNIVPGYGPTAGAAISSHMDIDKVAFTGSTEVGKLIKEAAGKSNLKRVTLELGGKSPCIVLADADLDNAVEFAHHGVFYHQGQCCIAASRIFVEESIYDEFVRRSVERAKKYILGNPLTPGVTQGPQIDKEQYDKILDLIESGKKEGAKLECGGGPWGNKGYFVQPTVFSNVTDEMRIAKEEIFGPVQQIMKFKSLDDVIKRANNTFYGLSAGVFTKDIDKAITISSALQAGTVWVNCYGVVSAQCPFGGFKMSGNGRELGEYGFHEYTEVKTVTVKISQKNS
In words: Binding affinity to ALDH1A1 cysteine residue in human 786-O cell soluble proteomic lysate at 5 uM incubated for 1 hr followed by cell lysis by IA-alkyne probe based isoTOP-ABPP analysis.

The target of experiment [6] is T4, Cytoskeleton-associated protein 4 (Homo sapiens) (UniProt Q07065).
T4 sequence (whole entry): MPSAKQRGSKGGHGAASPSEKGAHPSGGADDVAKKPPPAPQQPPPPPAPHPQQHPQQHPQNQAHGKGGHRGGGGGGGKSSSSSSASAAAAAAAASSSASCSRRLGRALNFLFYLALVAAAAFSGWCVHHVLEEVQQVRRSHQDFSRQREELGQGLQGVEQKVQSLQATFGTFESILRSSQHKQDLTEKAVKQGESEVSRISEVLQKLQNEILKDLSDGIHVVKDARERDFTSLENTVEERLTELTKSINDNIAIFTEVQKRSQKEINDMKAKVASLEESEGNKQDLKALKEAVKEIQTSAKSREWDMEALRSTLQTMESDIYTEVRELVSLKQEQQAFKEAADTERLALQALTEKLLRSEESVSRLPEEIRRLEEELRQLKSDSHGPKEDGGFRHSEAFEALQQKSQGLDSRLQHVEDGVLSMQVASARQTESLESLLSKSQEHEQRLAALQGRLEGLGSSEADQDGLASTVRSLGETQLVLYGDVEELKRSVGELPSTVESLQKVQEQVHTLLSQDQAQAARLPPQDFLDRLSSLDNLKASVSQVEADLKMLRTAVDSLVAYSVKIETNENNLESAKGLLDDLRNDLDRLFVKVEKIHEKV
The experiment in a line: Binding affinity to CKAP4 cysteine residue in human 786-O cell soluble proteomic lysate at 5 uM incubated for 1 hr followed by cell lysis by IA-alkyne probe based isoTOP-ABPP analysis.

Experiment [7] deals with T5, 5'-nucleotidase domain-containing protein 2 (Homo sapiens) (UniProt Q9H857).
T5 sequence (whole entry): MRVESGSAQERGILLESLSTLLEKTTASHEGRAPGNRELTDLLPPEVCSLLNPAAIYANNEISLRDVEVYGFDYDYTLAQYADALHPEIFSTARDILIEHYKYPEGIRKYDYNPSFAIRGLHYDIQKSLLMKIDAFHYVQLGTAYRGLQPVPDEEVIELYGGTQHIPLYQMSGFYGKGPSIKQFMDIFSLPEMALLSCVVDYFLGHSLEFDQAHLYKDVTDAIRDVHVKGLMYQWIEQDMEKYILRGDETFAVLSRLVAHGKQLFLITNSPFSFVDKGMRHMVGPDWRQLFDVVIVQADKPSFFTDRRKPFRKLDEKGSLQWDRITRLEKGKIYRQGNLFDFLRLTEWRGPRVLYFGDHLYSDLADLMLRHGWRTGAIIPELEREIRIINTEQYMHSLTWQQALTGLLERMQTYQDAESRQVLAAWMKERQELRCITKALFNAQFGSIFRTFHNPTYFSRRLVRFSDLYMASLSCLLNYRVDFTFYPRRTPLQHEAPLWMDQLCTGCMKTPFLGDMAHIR
The experiment in a line: Binding affinity to NT5DC2 cysteine residue in human 786-O cell soluble proteomic lysate at 5 uM incubated for 1 hr followed by cell lysis by IA-alkyne probe based isoTOP-ABPP analysis.

On to `CC(C)CCN(C(=O)CCl)c1cc(C(=O)NCc2cccc([N+](=O)[O-])c2)cc(C(F)(F)F)c1`, for which the IC50 in experiment [1] was 0.35 µM; in experiment [2], 0.18 µM; in experiment [3] it was above 100 µM. Also, the outcome in experiment [4], in experiment [5] and in experiment [6] was Active.
As to `O=C(Nc1cccnc1Cl)c1cc(N(CCCc2ccccc2)C(=O)CCl)cc(C(F)(F)F)c1`, the IC50 is 22 µM in experiment [1] and 17 µM in experiment [2]. Also, the result in experiment [4], in experiment [5] and in experiment [7] was Active.
